According to US20100298141A1, “SUBSTITUTED PYRIDINE N-OXIDE HERBICIDES” (E. I. DU PONT DE NEMOURS AND COMPANY, priority 2007, published 2010):

How the values were obtained:
redroot pigweed = test: Test A pre-/postemergence greenhouse test; type: in vivo, Amaranthus retroflexus; details: for Plant response rating, Pigweed: 0 to 100 scale where 0 is no effect and 100 is complete control; for Pigweed plant response rating: 0 to 100 scale
How it was run: (§1)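 Untreated controls served as the reference for visual injury ratings taken about ten days after spraying. The non-phytotoxic solvent/surfactant formulation was applied preemergence to seeded loam and sand and postemergence to plants two to ten cm high.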

morningglory = test: Test A pre-/postemergence greenhouse test; type: in vivo, Ipomoea spp.; details: for Plant response rating, Morningglory: 0 to 100 scale where 0 is no effect and 100 is complete control; for Morningglory plant response rating: 0 to 100 scale
How it was run: as §1

umbrella sedge = test: Test C flooded paddy test; type: in vivo, Cyperus difformis; details: Flood, 250 g ai/ha; scale 0 to 100, 0 no effect, 100 complete control; 13 to 15 days
How it was run: (§2)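 Under a constant 3 cm flood, test compounds went directly into the paddy water. Following 13 to 15 days of greenhouse growth, treated species and controls were compared by eye.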

wheat = test: Test A pre-/postemergence greenhouse test; type: in vivo, Triticum aestivum; details: for Plant response rating, Wheat: 0 to 100 scale where 0 is no effect and 100 is complete control; for Wheat plant response rating: 0 to 100 scale
How it was run: as §1

barnyardgrass [1] = test: Test C flooded paddy test; type: in vivo, Echinochloa crus-galli; details: Flood, scale 0 to 100, 0 no effect, 100 complete control, 13 to 15 days
How it was run: as §2

corn = test: Test A pre-/postemergence greenhouse test; type: in vivo, Zea mays; details: for Plant response rating, Corn: 0 to 100 scale where 0 is no effect and 100 is complete control; for Corn plant response rating: 0 to 100 scale
How it was run: as §1

velvetleaf = test: Test A pre-/postemergence greenhouse test; type: in vivo, Abutilon theophrasti; details: for Plant response rating, Velvetleaf: 0 to 100 scale where 0 is no effect and 100 is complete control; for Velvetleaf plant response rating: 0 to 100 scale
How it was run: as §1

rice = test: Test C flooded paddy test; type: in vivo, Oryza sativa; details: Flood, scale 0 to 100, 0 no effect, 100 complete control, 13 to 15 days
How it was run: as §2

giant foxtail = test: Test A pre-/postemergence greenhouse test; type: in vivo, Setaria faberi; details: for Plant response rating, Foxtail, Giant: 0 to 100 scale where 0 is no effect and 100 is complete control; for Foxtail, Giant plant response rating: 0 to 100 scale
How it was run: as §1

barnyardgrass [2] = test: Test A pre-/postemergence greenhouse test; type: in vivo, Echinochloa crus-galli; details: for Plant response rating, Barnyardgrass: 0 to 100 scale where 0 is no effect and 100 is complete control; for Barnyardgrass plant response rating: 0 to 100 scale
How it was run: as §1

duck salad = test: Test C flooded paddy test; type: in vivo, Heteranthera limosa; details: Flood, scale 0 to 100, 0 no effect, 100 complete control, 13 to 15 days
How it was run: as §2

crabgrass = test: Test A pre-/postemergence greenhouse test; type: in vivo, Digitaria sanguinalis; details: for Plant response rating, Crabgrass, Large: 0 to 100 scale where 0 is no effect and 100 is complete control; for Crabgrass, Large plant response rating: 0 to 100 scale
How it was run: as §1

[3] = Postemergence, 500 g ai/ha, 0 is no effect, 100 is complete control
[4] = Preemergence, 125 g ai/ha, 0 no effect, 100 complete control

Cn1nc(C(F)(F)F)c(C[S+]([O-])c2cc(Cl)cc[n+]2[O-])c1OC(F)F (stereo not drawn) [Compound 57]
Plant response rating, Pigweed (redroot pigweed; Postemergence, 125 g ai/ha): 70 | Pigweed plant response rating (redroot pigweed; [3]): 100 | Pigweed plant response rating (redroot pigweed; [4]): 70 | Plant response rating, Pigweed (redroot pigweed; Preemergence, 500 g ai/ha): 100 | Plant response rating, Morningglory (morningglory; Postemergence, 125 g ai/ha): 30 | Morningglory plant response rating (morningglory; [3]): 70 | Morningglory plant response rating (morningglory; [4]): 40 | Plant response rating, Morningglory (morningglory; Preemergence, 500 g ai/ha): 90 | Plant response rating, Sedge, Umbrella (umbrella sedge): 100 | Plant response rating, Wheat (wheat; Postemergence, 125 g ai/ha): 50 | Wheat plant response rating (wheat; [3]): 70 | Wheat plant response rating (wheat; [4]): 20 | Plant response rating, Wheat (wheat; Preemergence, 500 g ai/ha): 40 | Plant response rating, Barnyardgrass (barnyardgrass [1]; 62 g ai/ha): 15 | Plant response rating, Barnyardgrass (barnyardgrass [1]; 250 g ai/ha): 20 | Plant response rating, Corn (corn; Postemergence, 125 g ai/ha): 0 | Corn plant response rating (corn; [3]): 60 | Corn plant response rating (corn; [4]): 0 | Plant response rating, Corn (corn; Preemergence, 500 g ai/ha): 0 | Plant response rating, Velvetleaf (velvetleaf; Postemergence, 125 g ai/ha): 30 | Velvetleaf plant response rating (velvetleaf; [3]): 70 | Velvetleaf plant response rating (velvetleaf; [4]): 50 | Plant response rating, Velvetleaf (velvetleaf; Preemergence, 500 g ai/ha): 70 | Plant response rating, Rice (rice; 62 g ai/ha): 0 | Plant response rating, Rice (rice; 250 g ai/ha): 65 | Plant response rating, Foxtail, Giant (giant foxtail; Postemergence, 125 g ai/ha): 30 | Foxtail, Giant plant response rating (giant foxtail; [3]): 60 | Foxtail, Giant plant response rating (giant foxtail; [4]): 30 | Plant response rating, Foxtail, Giant (giant foxtail; Preemergence, 500 g ai/ha): 100 | Plant response rating, Barnyardgrass (barnyardgrass [2]; Postemergence, 125 g ai/ha): 30 | Barnyardgrass plant response rating (barnyardgrass [2]; [3]): 50 | Barnyardgrass plant response rating (barnyardgrass [2]; [4]): 60 | Plant response rating, Barnyardgrass (barnyardgrass [2]; Preemergence, 500 g ai/ha): 100 | Plant response rating, Ducksalad (duck salad; 62 g ai/ha): 40 | Plant response rating, Ducksalad (duck salad; 250 g ai/ha): 95 | Plant response rating, Crabgrass, Large (crabgrass; Postemergence, 125 g ai/ha): 60 | Crabgrass, Large plant response rating (crabgrass; [3]): 90 | Crabgrass, Large plant response rating (crabgrass; [4]): 60 | Plant response rating, Crabgrass, Large (crabgrass; Preemergence, 500 g ai/ha): 80

O=S(=O)(Cc1c(C(F)(F)F)nn(CC(F)(F)F)c1Cl)c1ccc(Cl)c[n+]1[O-] [Compound 50]
Plant response rating, Pigweed (redroot pigweed; Postemergence, 125 g ai/ha): 20 | Pigweed plant response rating (redroot pigweed; [3]): 30 | Pigweed plant response rating (redroot pigweed; [4]): 80 | Plant response rating, Pigweed (redroot pigweed; Preemergence, 500 g ai/ha): 100 | Plant response rating, Morningglory (morningglory; Postemergence, 125 g ai/ha): 30 | Morningglory plant response rating (morningglory; [3]): 30 | Morningglory plant response rating (morningglory; [4]): 30 | Plant response rating, Morningglory (morningglory; Preemergence, 500 g ai/ha): 40 | Plant response rating, Sedge, Umbrella (umbrella sedge): 40 | Plant response rating, Wheat (wheat; Postemergence, 125 g ai/ha): 0 | Wheat plant response rating (wheat; [3]): 0 | Wheat plant response rating (wheat; [4]): 0 | Plant response rating, Wheat (wheat; Preemergence, 500 g ai/ha): 0 | Plant response rating, Barnyardgrass (barnyardgrass [1]; 62 g ai/ha): 0 | Plant response rating, Barnyardgrass (barnyardgrass [1]; 250 g ai/ha): 45 | Plant response rating, Corn (corn; Postemergence, 125 g ai/ha): 0 | Corn plant response rating (corn; [3]): 0 | Corn plant response rating (corn; [4]): 0 | Plant response rating, Corn (corn; Preemergence, 500 g ai/ha): 0 | Plant response rating, Velvetleaf (velvetleaf; Postemergence, 125 g ai/ha): 0 | Velvetleaf plant response rating (velvetleaf; [3]): 0 | Velvetleaf plant response rating (velvetleaf; [4]): 0 | Plant response rating, Velvetleaf (velvetleaf; Preemergence, 500 g ai/ha): 0 | Plant response rating, Rice (rice; 62 g ai/ha): 0 | Plant response rating, Rice (rice; 250 g ai/ha): 30 | Plant response rating, Foxtail, Giant (giant foxtail; Postemergence, 125 g ai/ha): 70 | Foxtail, Giant plant response rating (giant foxtail; [3]): 70 | Foxtail, Giant plant response rating (giant foxtail; [4]): 80 | Plant response rating, Foxtail, Giant (giant foxtail; Preemergence, 500 g ai/ha): 90 | Plant response rating, Barnyardgrass (barnyardgrass [2]; Postemergence, 125 g ai/ha): 60 | Barnyardgrass plant response rating (barnyardgrass [2]; [3]): 70 | Barnyardgrass plant response rating (barnyardgrass [2]; [4]): 70 | Plant response rating, Barnyardgrass (barnyardgrass [2]; Preemergence, 500 g ai/ha): 90 | Plant response rating, Ducksalad (duck salad; 62 g ai/ha): 0 | Plant response rating, Ducksalad (duck salad; 250 g ai/ha): 40 | Plant response rating, Crabgrass, Large (crabgrass; Postemergence, 125 g ai/ha): 60 | Crabgrass, Large plant response rating (crabgrass; [3]): 70 | Crabgrass, Large plant response rating (crabgrass; [4]): 60 | Plant response rating, Crabgrass, Large (crabgrass; Preemergence, 500 g ai/ha): 90
